Test results: PubChem BioAssay (NCI)
Several values for one entry are separate records, joined by “and”; a condition that tells them apart may be missing. Identical values can stand only once.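 Growth conditions: 96-well plates. Treatment: test compound, 48 hours, 5 concentrations. Analysis: linear interpolation between bracketing concentrations; unreached endpoints set to highest concentration. GI50 is the concentration that inhibits growth by half. At the TGI there is no net growth.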

Legend:
Test in all cases: NCI tumour cell line growth inhibition, 48 h
HOP-18 NSCLC = system: HOP-18 NSCLC
XF 498 CNS = system: XF 498 CNS
RXF-631 renal = system: RXF-631 renal
SNB-78 CNS = system: SNB-78 CNS
LXFL 529 NSCLC = system: LXFL 529 NSCLC
M19-MEL melanoma = system: M19-MEL melanoma
P388/ADR leukemia = system: P388/ADR leukemia
P388 leukemia = system: P388 leukemia
DMS 114 small cell lung = system: DMS 114 small cell lung
DMS 273 small cell lung = system: DMS 273 small cell lung
SN12K1 renal = system: SN12K1 renal

C=CCOCCCC(=O)C(=[N+]=[N-])C(=O)OC
TGI (HOP-18 NSCLC): > 100 µM
TGI (XF 498 CNS): > 100 µM
TGI (RXF-631 renal): > 100 µM
TGI (SNB-78 CNS): > 100 µM
TGI (LXFL 529 NSCLC): > 100 µM
TGI (M19-MEL melanoma): > 100 µM

CN(C)CCNc1c([N+](=O)[O-])cc2c3c(cccc13)C(=O)N(CCN(C)C)C2=O
TGI (HOP-18 NSCLC): 4.6 µM
TGI (P388/ADR leukemia): 4.9 µM
TGI (XF 498 CNS): 3.92 µM
TGI (SNB-78 CNS): 7.21 µM
TGI (P388 leukemia): 2.62 µM
TGI (DMS 114 small cell lung): 3.1 µM
TGI (DMS 273 small cell lung): 2.95 µM
TGI (M19-MEL melanoma): 3.28 µM

S=C(NCCCCCCNC(=S)Nc1c2ccccc2nc2ccccc12)Nc1c2ccccc2nc2ccccc12
TGI (HOP-18 NSCLC): > 100 µM
TGI (P388/ADR leukemia): > 100 µM
TGI (SN12K1 renal): > 25.1 µM
TGI (XF 498 CNS): > 100 µM
TGI (SNB-78 CNS): > 100 µM
TGI (P388 leukemia): > 100 µM
TGI (DMS 273 small cell lung): > 100 µM
TGI (M19-MEL melanoma): > 100 µM

Cc1c2c(cc3c1[nH]c1ccccc13)C(c1ccc(F)cc1)=NCC2
TGI (HOP-18 NSCLC): 14.5 µM
TGI (P388/ADR leukemia): 5 µM
TGI (SN12K1 renal): 2.16 µM
TGI (XF 498 CNS): 5.67 µM
TGI (SNB-78 CNS): 9.03 µM
TGI (P388 leukemia): 1.97 µM
TGI (DMS 114 small cell lung): 2.41 µM
TGI (DMS 273 small cell lung): 2.29 µM
TGI (M19-MEL melanoma): 5.44 µM

CC(=O)C1=C(O)C2(O)C(=O)c3c(c(C)c4ccc(C)c(O)c4c3O)CC2C(N)C1=O (stereo not drawn)
TGI (HOP-18 NSCLC): 13.4 µM
TGI (XF 498 CNS): 5.09 µM
TGI (RXF-631 renal): 11.2 µM
TGI (DMS 114 small cell lung): 7.17 µM
TGI (DMS 273 small cell lung): 5.54 µM
TGI (LXFL 529 NSCLC): 10.2 µM
TGI (M19-MEL melanoma): 11 µM

Cc1c(N)nc([C@H](CC(N)=O)NC[C@H](N)C(N)=O)nc1C(=O)N[C@H](C(=O)N[C@H](C)[C@@H](O)[C@H](C)C(=O)N[C@H](C(=O)NCCc1nc(-c2nc(C(=O)NCCC[S+](C)C)cs2)cs1)[C@@H](C)O)C(OC1OC(CO)C(O)C(O)C1OC1OC(CO)C(O)C(OC(N)=O)C1O)c1cnc[nH]1 (stereo partly drawn)
TGI (HOP-18 NSCLC): 13.3 µM
TGI (P388/ADR leukemia): 20 µM
TGI (SN12K1 renal): 21 µM
TGI (XF 498 CNS): 13.5 µM
GI50 (RXF-631 renal): 0.372 µM
TGI (RXF-631 renal): 17.7 µM and 10.4 µM
GI50 (SNB-78 CNS): > 29 µM
TGI (SNB-78 CNS): 24.9 µM and > 29 µM
TGI (P388 leukemia): 18.5 µM
GI50 (DMS 114 small cell lung): 1.29 µM
TGI (DMS 114 small cell lung): 5.68 µM and 29 µM
GI50 (DMS 273 small cell lung): 0.0709 µM
TGI (DMS 273 small cell lung): 7.82 µM and 29 µM
GI50 (LXFL 529 NSCLC): > 29 µM
TGI (LXFL 529 NSCLC): 23.6 µM and > 29 µM
GI50 (M19-MEL melanoma): 12.9 µM
TGI (M19-MEL melanoma): 25 µM and 29 µM

COC1CCC(OS(C)(=O)=O)CO1 (stereo not drawn)
TGI (SNB-78 CNS): > 100 µM
TGI (DMS 114 small cell lung): > 100 µM
TGI (LXFL 529 NSCLC): > 100 µM
TGI (M19-MEL melanoma): > 100 µM

CN1CCC23c4ccccc4NC1C21CCN(C)C3Nc2ccccc21
TGI (HOP-18 NSCLC): > 375 µM
TGI (P388/ADR leukemia): > 375 µM
TGI (SN12K1 renal): > 275 µM
TGI (SNB-78 CNS): > 158 µM
TGI (P388 leukemia): > 124 µM
TGI (DMS 114 small cell lung): > 375 µM
TGI (DMS 273 small cell lung): > 375 µM
TGI (M19-MEL melanoma): > 375 µM

O=C1CCC(NC(=O)Cc2ccc(O)cc2)C(=O)N1 (stereo not drawn)
TGI (HOP-18 NSCLC): > 2500 µM
TGI (XF 498 CNS): > 2500 µM
TGI (RXF-631 renal): > 2500 µM
TGI (SNB-78 CNS): > 2500 µM
TGI (DMS 114 small cell lung): > 2500 µM
TGI (DMS 273 small cell lung): > 2500 µM
TGI (LXFL 529 NSCLC): > 2500 µM
TGI (M19-MEL melanoma): > 2500 µM

CCN(CC)/C(=C\Cl)Nc1ccccn1
TGI (HOP-18 NSCLC): > 100 µM
TGI (XF 498 CNS): > 100 µM
TGI (RXF-631 renal): > 100 µM
TGI (SNB-78 CNS): > 100 µM
TGI (DMS 114 small cell lung): > 100 µM
TGI (DMS 273 small cell lung): > 100 µM
TGI (LXFL 529 NSCLC): > 100 µM
TGI (M19-MEL melanoma): > 100 µM
